In the NIST ThermoML archive (doi:10.1021/acs.jced.8b00438):

Test: xn = mol fraction of the nth substance listed
Details: 100 kPa, Liquid; for viscosity: Falling or rolling sphere viscometry; for mass density: Vibrating tube method

C1CCC(C2CCCCC2)CC1 [1,1'-bicyclohexyl] + CCCCO
Details	mass density [kg/m3]	viscosity [mPa·s]
293.15 K, x1 = 0.1007	823.66	2.853
293.15 K, x1 = 0.2009	835.23	2.878
293.15 K, x1 = 0.3021	845.04	2.902
293.15 K, x1 = 0.4007	853.19	2.957
293.15 K, x1 = 0.5038	860.51	3.002
293.15 K, x1 = 0.5992	866.48	3.096
293.15 K, x1 = 0.7006	872.11	3.227
293.15 K, x1 = 0.7983	877.03	3.418
293.15 K, x1 = 0.8835	880.86	3.575
293.15 K, x1 = 1	886.05	4.003
298.15 K, x1 = 0.1007	819.86	2.507
298.15 K, x1 = 0.2009	831.42	2.527
298.15 K, x1 = 0.3021	841.24	2.548
298.15 K, x1 = 0.4007	849.39	2.603
298.15 K, x1 = 0.5038	856.73	2.648
298.15 K, x1 = 0.5992	862.71	2.734
298.15 K, x1 = 0.7006	868.37	2.851
298.15 K, x1 = 0.7983	873.33	3.02
298.15 K, x1 = 0.8835	877.19	3.158
298.15 K, x1 = 1	882.44	3.53
303.15 K, x1 = 0.1007	816.02	2.214
303.15 K, x1 = 0.2009	827.58	2.232
303.15 K, x1 = 0.3021	837.4	2.254
303.15 K, x1 = 0.4007	845.56	2.306
303.15 K, x1 = 0.5038	852.92	2.353
303.15 K, x1 = 0.5992	858.93	2.431
303.15 K, x1 = 0.7006	864.61	2.539
303.15 K, x1 = 0.7983	869.6	2.689
303.15 K, x1 = 0.8835	873.49	2.807
303.15 K, x1 = 1	878.84	3.137
308.15 K, x1 = 0.1007	812.14	1.963
308.15 K, x1 = 0.2009	823.71	1.982
308.15 K, x1 = 0.3021	833.53	2.006
308.15 K, x1 = 0.4007	841.7	2.054
308.15 K, x1 = 0.5038	849.08	2.102
308.15 K, x1 = 0.5992	855.12	2.179
308.15 K, x1 = 0.7006	860.84	2.273
308.15 K, x1 = 0.7983	865.87	2.411
308.15 K, x1 = 0.8835	869.8	2.513
308.15 K, x1 = 1	875.25	2.81
313.15 K, x1 = 0.1007	808.22	1.749
313.15 K, x1 = 0.2009	819.81	1.767
313.15 K, x1 = 0.3021	829.63	1.793
313.15 K, x1 = 0.4007	837.81	1.84
313.15 K, x1 = 0.5038	845.22	1.881
313.15 K, x1 = 0.5992	851.3	1.957
313.15 K, x1 = 0.7006	857.05	2.048
313.15 K, x1 = 0.7983	862.13	2.17
313.15 K, x1 = 0.8835	866.09	2.262
313.15 K, x1 = 1	871.66	2.532
318.15 K, x1 = 0.1007	804.27	1.563
318.15 K, x1 = 0.2009	815.86	1.582
318.15 K, x1 = 0.3021	825.69	1.61
318.15 K, x1 = 0.4007	833.9	1.656
318.15 K, x1 = 0.5038	841.34	1.704
318.15 K, x1 = 0.5992	847.45	1.769
318.15 K, x1 = 0.7006	853.25	1.853
318.15 K, x1 = 0.7983	858.37	1.966
318.15 K, x1 = 0.8835	862.38	2.047
318.15 K, x1 = 1	868.08	2.296
323.15 K, x1 = 0.1007	800.27	1.402
323.15 K, x1 = 0.2009	811.87	1.423
323.15 K, x1 = 0.3021	821.71	1.452
323.15 K, x1 = 0.4007	829.95	1.498
323.15 K, x1 = 0.5038	837.43	1.545
323.15 K, x1 = 0.5992	843.58	1.608
323.15 K, x1 = 0.7006	849.43	1.685
323.15 K, x1 = 0.7983	854.6	1.789
323.15 K, x1 = 0.8835	858.66	1.863
323.15 K, x1 = 1	864.5	2.092
328.15 K, x1 = 0.1007	796.21	1.263
328.15 K, x1 = 0.2009	807.82	1.285
328.15 K, x1 = 0.3021	817.69	1.315
328.15 K, x1 = 0.4007	825.97	1.36
328.15 K, x1 = 0.5038	833.49	1.407
328.15 K, x1 = 0.5992	839.69	1.466
328.15 K, x1 = 0.7006	845.59	1.54
328.15 K, x1 = 0.7983	850.82	1.635
328.15 K, x1 = 0.8835	854.93	1.702
328.15 K, x1 = 1	860.93	1.915
333.15 K, x1 = 0.1007	792.1	1.141
333.15 K, x1 = 0.2009	803.73	1.164
333.15 K, x1 = 0.3021	813.63	1.196
333.15 K, x1 = 0.4007	821.94	1.24
333.15 K, x1 = 0.5038	829.52	1.286
333.15 K, x1 = 0.5992	835.77	1.342
333.15 K, x1 = 0.7006	841.73	1.411
333.15 K, x1 = 0.7983	847.02	1.499
333.15 K, x1 = 0.8835	851.2	1.562
333.15 K, x1 = 1	857.35	1.762
